Assay results as given in patent US20060165642A1, “Hair treatment compositions” (priority 2002, published 2006).

Test: cuticle abrasion test
Details: for performance in cuticle abrasion test versus comparative Examples: base shampoo containing 0.03M of the compound; for % recovery: freeze-dried cuticle abraded from 4 g hair washed twice with base shampoo containing 0.03M of the compound, lower is better
Experimental: The compositions were tested in a cuticle abrasion test. Root end hair (as received from the supplier) was pre-cleaned by washing for 1 minute in Composition I followed by copious rinsing in double deionised water. The hair was left to dry naturally over 24 hrs.
For each test, 4 g of hair was washed in 0.4 g of the test composition for 30 seconds, rinsed for 30 seconds, and the washing/rinsing cycle repeated. The hair was left to dry naturally overnight.
The hair was cut into 1 cm lengths, placed in a blender bucket and 200 ml of double de-ionised water was added. The blender was placed on full power for 1 minute. The liquor was decanted off and transferred to a 50 ml centrifuge tube and centrifuged for 10 minutes at 4,300 RPM. The resulting clear liquor was decanted off leaving the cuticle sediment at the bottom of the tube.
The cuticle was transferred from the tube into a beaker with 3×5 ml washes and passed through a series of sieves (425 and 53 microns). The sieves were washed with a further 2×10 ml of water to ensure complete recovery of the cuticle. The sample was made up to 50 ml in a centrifuge tube, centrifuged for 15 minutes and the liquor decanted off. The cuticle was transferred with double deionised water (2×10 ml washes) to a beaker and freeze-dried.
The freeze-dried cuticle was weighed back to determine percentage recovery.

CC(C)(C)CCO [Compound 1, 3,3-dimethylbutan-1-ol]
performance in cuticle abrasion test versus comparative Examples: perform better than comparative Examples A and B | % recovery: 0.31%

CC(C)(C)C(O)CO (centres unmarked) [Compound 2, 3,3-dimethyl-1,2-butanediol]
performance in cuticle abrasion test versus comparative Examples: perform better than comparative Examples A and B | % recovery: 0.27%

CC(O)CC(C)(C)O (centres unmarked) [Compound B, 2-methyl-2,4 pentanediol, reference compound]
% recovery: 0.50%
